# Results published in ChEMBL document CHEMBL5108002, “Design, synthesis, and biological evaluation of novel 7-substituted 10,11-methylenedioxy-camptothecin derivatives against drug-resistant small-cell lung cancer in vitro and in vivo” (Eur J Med Chem, 2022).
# Calls of active or inactive are those of the source. No cut-off for these calls is given here.
# Assays:
# 2008 = assay: Antiproliferative activity against human 2008 cells assessed as inhibition of cell growth incubated for 72 hrs by SRB assay; assay type: functional, cell-based; details: Homo sapiens, 2008, 72 h
# SW-620 = assay: Antiproliferative activity against human SW-620 cells assessed as inhibition of cell growth incubated for 72 hrs by SRB assay; assay type: functional, cell-based; details: SW-620, 72 h
# NCI-H446 [1] = assay: Antitumor activity against human NCI-H446 cells xenografted in BALB/c nude mouse assessed as tumor growth inhibition at 3 mg/kg, IG administered once a week for 28 days by electronic caliper method relative to control; assay type: functional; details: NCI-H446, po, 672 h, time 28 day, read-out: TGI
# NCI-H446 [2] = assay: Antiproliferative activity against Irinotecan-resistant human NCI-H446 cells assessed as inhibition of cell growth incubated for 72 hrs by SRB assay; assay type: functional, cell-based; details: NCI-H446, 72 h
# [3] = Resistance index, ratio of IC50 for antiproliferative activity against Irinotecan-resistant human NCI-H446 cells to IC50 for antiproliferative activity against human NCI-H446 cells; assay type: functional
# NCI-H446 [4] = assay: Antiproliferative activity against etoposide/cisplatin combination-resistant human NCI-H446 cells assessed as inhibition of cell growth incubated for 72 hrs by SRB assay; assay type: functional, cell-based; details: NCI-H446, 72 h
# [5] = Resistance index, ratio of IC50 for antiproliferative activity against etoposide/cisplatin combination-resistant human NCI-H446 cells to IC50 for antiproliferative activity against human NCI-H446 cells; assay type: functional
# NCI-H446 [6] = assay: Antitumor activity against Irinotecan-resistant human NCI-H446 cells xenografted in BALB/c nude mouse assessed as tumor weight at 100 mg/kg, IG administered once a week and measured 3 times a week for 35 days; assay type: functional; details: time 35 day
# HepG2 = assay: Antiproliferative activity against human HepG2 cells assessed as inhibition of cell growth incubated for 72 hrs by SRB assay; assay type: functional, cell-based; details: HepG2, 72 h
# Bel-7402 = assay: Antiproliferative activity against human Bel-7402 cells assessed as inhibition of cell growth incubated for 72 hrs by SRB assay; assay type: functional, cell-based; details: Bel-7402, 72 h
# H69AR [7] = assay: Antiproliferative activity against human NCI-H69AR cells assessed as inhibition of cell growth incubated for 72 hrs by SRB assay; assay type: functional, cell-based
# SH-SY5Y = assay: Antiproliferative activity against human SH-SY5Y cells assessed as inhibition of cell growth incubated for 72 hrs by SRB assay; assay type: functional, cell-based
# MCF7 = assay: Antiproliferative activity against human MCF7 cells assessed as inhibition of cell growth incubated for 72 hrs by SRB assay; assay type: functional, cell-based; details: MCF7, 72 h
# NCI-H69 = assay: Antiproliferative activity against human NCI-H69 cells assessed as inhibition of cell growth incubated for 72 hrs by SRB assay; assay type: functional, cell-based; details: NCI-H69, 72 h
# U-87 MG = assay: Antiproliferative activity against human U87 cells assessed as inhibition of cell growth incubated for 72 hrs by SRB assay; assay type: functional, cell-based, U-87MG ATCC
# NCI-H446 [8] = assay: Induction of apoptosis in human NCI-H446 cells assessed as early apoptotic cells at 0.1 nM incubated for 24 hrs by AnnexinV-FITC/PI staining based flow cytometry analysis (reference value: 2.43 %); assay type: functional
# NCI-H446 [9] = assay: Induction of apoptosis in human NCI-H446 cells assessed as late apoptotic cells at 0.1 nM incubated for 24 hrs by AnnexinV-FITC/PI staining based flow cytometry analysis (reference value: 1.55 %); assay type: functional
# NCI-H446 [10] = assay: Induction of apoptosis in human NCI-H446 cells assessed as dead cells at 0.1 nM incubated for 24 hrs by AnnexinV-FITC/PI staining based flow cytometry analysis (reference value: 0.33 %); assay type: functional
# NCI-H446 [11] = assay: Induction of apoptosis in human NCI-H446 cells assessed as early apoptotic cells at 1 nM incubated for 24 hrs by AnnexinV-FITC/PI staining based flow cytometry analysis (reference value: 2.43 %); assay type: functional
# NCI-H446 [12] = assay: Induction of apoptosis in human NCI-H446 cells assessed as late apoptotic cells at 1 nM incubated for 24 hrs by AnnexinV-FITC/PI staining based flow cytometry analysis (reference value: 1.55 %); assay type: functional
# NCI-H446 [13] = assay: Induction of apoptosis in human NCI-H446 cells assessed as dead cells at 1 nM incubated for 24 hrs by AnnexinV-FITC/PI staining based flow cytometry analysis (reference value: 0.33 %); assay type: functional
# NCI-H446 [14] = assay: Induction of apoptosis in human NCI-H446 cells assessed as early apoptotic cells at 10 nM incubated for 24 hrs by AnnexinV-FITC/PI staining based flow cytometry analysis (reference value: 2.43 %); assay type: functional
# NCI-H446 [15] = assay: Induction of apoptosis in human NCI-H446 cells assessed as late apoptotic cells at 10 nM incubated for 24 hrs by AnnexinV-FITC/PI staining based flow cytometry analysis (reference value: 1.55 %); assay type: functional
# NCI-H446 [16] = assay: Induction of apoptosis in human NCI-H446 cells assessed as dead cells at 10 nM incubated for 24 hrs by AnnexinV-FITC/PI staining based flow cytometry analysis (reference value: 0.33 %); assay type: functional
# H69AR [17] = assay: Induction of apoptosis in human NCI-H69AR cells assessed as early apoptotic cells at 1 nM incubated for 24 hrs by AnnexinV-FITC/PI staining based flow cytometry analysis (reference value: 0.35 %); assay type: functional
# H69AR [18] = assay: Induction of apoptosis in human NCI-H69AR cells assessed as late apoptotic cells at 1 nM incubated for 24 hrs by AnnexinV-FITC/PI staining based flow cytometry analysis (reference value: 2.99 %); assay type: functional
# H69AR [19] = assay: Induction of apoptosis in human NCI-H69AR cells assessed as dead cells at 1 nM incubated for 24 hrs by AnnexinV-FITC/PI staining based flow cytometry analysis (reference value: 1.92 %); assay type: functional
# H69AR [20] = assay: Induction of apoptosis in human NCI-H69AR cells assessed as early apoptotic cells at 10 nM incubated for 24 hrs by AnnexinV-FITC/PI staining based flow cytometry analysis (reference value: 0.35 %); assay type: functional
# H69AR [21] = assay: Induction of apoptosis in human NCI-H69AR cells assessed as late apoptotic cells at 10 nM incubated for 24 hrs by AnnexinV-FITC/PI staining based flow cytometry analysis (reference value: 2.99 %); assay type: functional
# H69AR [22] = assay: Induction of apoptosis in human NCI-H69AR cells assessed as dead cells at 10 nM incubated for 24 hrs by AnnexinV-FITC/PI staining based flow cytometry analysis (reference value: 1.92 %); assay type: functional
# H69AR [23] = assay: Induction of apoptosis in human NCI-H69AR cells assessed as early apoptotic cells at 100 nM incubated for 24 hrs by AnnexinV-FITC/PI staining based flow cytometry analysis (reference value: 0.35 %); assay type: functional
# H69AR [24] = assay: Induction of apoptosis in human NCI-H69AR cells assessed as late apoptotic cells at 100 nM incubated for 24 hrs by AnnexinV-FITC/PI staining based flow cytometry analysis (reference value: 2.99 %); assay type: functional
# H69AR [25] = assay: Induction of apoptosis in human NCI-H69AR cells assessed as dead cells at 100 nM incubated for 24 hrs by AnnexinV-FITC/PI staining based flow cytometry analysis (reference value: 1.92 %); assay type: functional
# NCI-H446 [26] = assay: Induction of apoptosis in human NCI-H446 cells assessed as increase in cleaved-PARP protein expression at 0.1 to 100 nM measured after 24 hrs by Western blot analysis; assay type: functional, cell-based; details: dose 0.1-100 nM
# NCI-H446 [27] = assay: Induction of apoptosis in human NCI-H446 cells assessed as increase in cleaved-caspase 9 protein expression at 0.1 to 100 nM measured after 24 hrs by Western blot analysis; assay type: functional, cell-based; details: dose 0.1-100 nM
# NCI-H446 [28] = assay: Induction of apoptosis in human NCI-H446 cells assessed as increase in cleaved-caspase 3 protein expression at 0.1 to 100 nM measured after 24 hrs by Western blot analysis; assay type: functional, cell-based; details: dose 0.1-100 nM
smiles,measurement,setting,value
CC[C@@]1(O)C(=O)OCc2c1cc1n(c2=O)Cc2c-1nc1cc3c(cc1c2-c1ccco1)OCO3,IC50,2008,0.16 nM
same,IC50,SW-620,102 nM
CC[C@@]1(O)C(=O)OCc2c1cc1n(c2=O)Cc2c-1nc1cc3c(cc1c2-c1cnn(C)c1)OCO3,IC50,2008,22.4 nM
same,IC50,SW-620,0.84 nM
CC[C@@]1(O)C(=O)OCc2c1cc1n(c2=O)Cc2c-1nc1cc3c(cc1c2-c1ccncc1)OCO3,IC50,2008,93.5 nM
same,IC50,SW-620,2.67 nM
CC[C@@]1(O)C(=O)OCc2c1cc1n(c2=O)Cc2c-1nc1cc3c(cc1c2-c1cc(C(F)(F)F)cc(C(F)(F)F)c1)OCO3,IC50,2008,49.7 nM
same,IC50,SW-620,1.44 nM
CCc1c2c(nc3ccc(OC(=O)N4CCC(N5CCCCC5)CC4)cc13)-c1cc3c(c(=O)n1C2)COC(=O)[C@]3(O)CC [IRINOTECAN],inhibition in vivo at 3 mg/kg,NCI-H446 [1],26.8%
same,IC50,NCI-H446 [2],0.15 nM
same,Ratio IC50,[3],15
same,IC50,NCI-H446 [4],0.13 nM
same,Ratio IC50,[5],13
same,Activity,NCI-H446 [6],2.28 g
CC[C@@]1(O)C(=O)OCc2c1cc1n(c2=O)Cc2c-1nc1cc3c(cc1c2-c1cccnc1)OCO3,IC50,2008,11.6 nM
same,IC50,SW-620,0.17 nM
CC[C@@]1(O)C(=O)OCc2c1cc1n(c2=O)Cc2cc3c(CN(C)C)c(O)ccc3nc2-1 [TOPOTECAN],IC50,2008,> 500 nM
same,IC50,SW-620,> 500 nM
CC[C@@]1(O)C(=O)OCc2c1cc1n(c2=O)Cc2c-1nc1cc3c(cc1c2-c1ccsc1)OCO3,IC50,2008,39.2 nM
same,IC50,SW-620,0.36 nM
CC[C@@]1(O)C(=O)OCc2c1cc1n(c2=O)Cc2c-1nc1cc3c(cc1c2-c1cccs1)OCO3,IC50,2008,4.03 nM
same,IC50,SW-620,0.29 nM
CC[C@@]1(O)C(=O)OCc2c1cc1n(c2=O)Cc2cc3cc4c(cc3nc2-1)OCO4,IC50,2008,37.3 nM
same,IC50,SW-620,0.93 nM
same,IC50,HepG2,10.6 nM
same,IC50,Bel-7402,21.8 nM
same,IC50,H69AR [7],6.29 nM
same,IC50,SH-SY5Y,24.2 nM
same,IC50,MCF7,63.3 nM
same,IC50,NCI-H69,15.8 nM
same,IC50,U-87 MG,109 nM
same,Activity,NCI-H446 [8],3.93%
same,Activity,NCI-H446 [9],0.83%
same,Activity,NCI-H446 [10],0.34%
same,Activity,NCI-H446 [11],9.64%
same,Activity,NCI-H446 [12],1.83%
same,Activity,NCI-H446 [13],0.97%
same,Activity,NCI-H446 [14],14.27%
same,Activity,NCI-H446 [15],2.82%
same,Activity,NCI-H446 [16],0.37%
same,Activity,H69AR [17],0.58%
same,Activity,H69AR [18],5.73%
same,Activity,H69AR [19],1.72%
same,Activity,H69AR [20],0.43%
same,Activity,H69AR [21],7.33%
same,Activity,H69AR [22],2.87%
same,Activity,H69AR [23],1.3%
same,Activity,H69AR [24],32.78%
same,Activity,H69AR [25],1.56%
same,Activity,NCI-H446 [26],Active
same,Activity,NCI-H446 [27],Active
same,Activity,NCI-H446 [28],Active
same,inhibition in vivo at 3 mg/kg,NCI-H446 [1],27.7%
same,IC50,NCI-H446 [2],18.5 nM
same,Ratio IC50,[3],2.09
same,IC50,NCI-H446 [4],6.61 nM
same,Ratio IC50,[5],0.78
CC[C@@]1(O)C(=O)OCc2c1cc1n(c2=O)Cc2c-1nc1cc3c(cc1c2-c1ccc(CO)cc1)OCO3,IC50,2008,7.67 nM
same,IC50,SW-620,0.28 nM
COc1cc([C@@H]2c3cc4c(cc3[C@@H](O[C@@H]3O[C@@H]5CO[C@@H](C)O[C@H]5[C@H](O)[C@H]3O)[C@H]3COC(=O)[C@H]23)OCO4)cc(OC)c1O [ETOPOSIDE],IC50,NCI-H446 [2],192 nM
same,Ratio IC50,[3],11.48
same,Ratio IC50,[5],19.28
COc1cccc2c1C(=O)c1c(O)c3c(c(O)c1C2=O)C[C@@](O)(C(=O)CO)C[C@@H]3O[C@H]1C[C@H](N)[C@H](O)[C@H](C)O1 [DOXORUBICIN],IC50,NCI-H446 [2],5.71 nM
same,Ratio IC50,[3],14.64
same,Ratio IC50,[5],46.56
